# Source: patent US7368578B2, “Five-membered heterocyclic compounds” (Takeda Pharmaceutical Company Limited, priority 2002, dated 2008)
row,Compound,melting point
1,"CCOc1cc(COc2nn(Cc3ccccc3)cc2C=O)ccc1OCc1nc(-c2ccco2)oc1C [Example 31, 1-benzyl-3-[(3-ethoxy-4-{[2-(2-furyl)-5-methyl-1,3-oxazol-4-yl]methoxy}benzyl)oxy]-1H-pyrazole-4-carbaldehyde]",144 to 145 °C
2,"CCOC(=O)c1cn(Cc2ccccc2)nc1OCc1ccc(OC)c(OCc2nc(-c3ccco3)oc2C)c1 [Example 32, ethyl 1-benzyl-3-[(3-{[2-(2-furyl)-5-methyl-1,3-oxazol-4-yl]methoxy}-4-methoxybenzyl)oxy]-1H-pyrazole-4-carboxylate]",147 to 148 °C
3,"COc1ccc(COc2nn(Cc3ccccc3)cc2C=O)cc1OCc1nc(-c2ccco2)oc1C [Example 34, 1-benzyl-3-[(3-{[2-(2-furyl)-5-methyl-1,3-oxazol-4-yl]methoxy}-4-methoxybenzyl)oxy]-1H-pyrazole-4-carbaldehyde]",142 to 143 °C
4,"CCOC(=O)c1cn(Cc2ccccc2)nc1OCc1ccc(OCc2nc(-c3ccco3)oc2C)c(Cl)c1 [Example 35, ethyl 1-benzyl-3-[(3-chloro-4-{[2-(2-furyl)-5-methyl-1,3-oxazol-4-yl]methoxy}benzyl)oxy]-1H-pyrazole-4-carboxylate]",153 to 154 °C
5,"Cc1oc(-c2ccco2)nc1COc1ccc(COc2nn(Cc3ccccc3)cc2C=O)cc1Cl [Example 37, 1-benzyl-3-[(3-chloro-4-{[2-(2-furyl)-5-methyl-1,3-oxazol-4-yl]methoxy}benzyl)oxy]-1H-pyrazole-4-carbaldehyde]",158 to 159 °C
6,"Cc1oc(-c2ccco2)nc1COc1ccc(COc2nn(Cc3ccccc3)cc2C(=O)O)cc1Cl [Example 38, 1-benzyl-3-[(3-chloro-4-{[2-(2-furyl)-5-methyl-1,3-oxazol-4-yl]methoxy}benzyl)oxy]-1H-pyrazole-4-carboxylic acid]",191 to 192 °C
7,"CCOC(=O)c1cn(Cc2ccccc2)nc1OCc1ccc(OCc2nc(-c3ccco3)oc2C)c(OCOC)c1 [Example 39, ethyl 1-benzyl-3-[(4-{[2-(2-furyl)-5-methyl-1,3-oxazol-4-yl]methoxy}-3-(methoxymethoxy)benzyl)oxy]-1H-pyrazole-4-carboxylate]",120 to 121 °C
8,"CCOC(=O)c1cn(Cc2ccccc2)nc1OCc1ccc(OCc2nc(-c3ccco3)oc2C)nc1 [Example 40, ethyl 1-benzyl-3-[(6-{[2-(2-furyl)-5-methyl-1,3-oxazol-4-yl]methoxy}-3-pyridinyl)methoxy]-1H-pyrazole-4-carboxylate]",140 to 141 °C
9,"Cc1oc(-c2ccco2)nc1COc1ccc(COc2nn(Cc3ccccc3)cc2C(=O)O)cn1 [Example 43, 1-benzyl-3-[(6-{[2-(2-furyl)-5-methyl-1,3-oxazol-4-yl]methoxy}-3-pyridinyl)methoxy]-1H-pyrazole-4-carboxylic acid]",151 to 152 °C
10,"COCOc1cc(COc2nn(Cc3ccccc3)cc2C=O)ccc1OCc1nc(-c2ccco2)oc1C [Example 45, 1-benzyl-3-([4-{[2-(2-furyl)-5-methyl-1,3-oxazol-4-yl]methoxy}-3-(methoxymethoxy)benzyl]oxy)-1H-pyrazole-4-carbaldehyde]",141 to 142 °C
11,"CCOC(=O)c1cn(Cc2ccccc2)nc1OCc1ccc(OCc2nc(-c3ccco3)oc2C)c(O)c1 [Example 46, ethyl 1-benzyl-3-[(4-{[2-(2-furyl)-5-methyl-1,3-oxazol-4-yl]methoxy}-3-hydroxybenzyl)oxy]-1H-pyrazole-4-carboxylate]",134 to 135 °C
12,"CCOC(=O)c1cn(Cc2ccccc2)nc1OCc1ccc(OCc2nc(-c3ccco3)oc2C)c(OCc2ccccc2)c1 [Example 48, ethyl 1-benzyl-3-[(3-benzyloxy-4-{[2-(2-furyl)-5-methyl-1,3-oxazol-4-yl]methoxy}benzyl)oxy]-1H-pyrazole-4-carboxylate]",127 to 128 °C
13,"Cc1oc(-c2ccco2)nc1COc1ccc(COc2nn(Cc3ccccc3)cc2C=O)cc1OCc1ccccc1 [Example 50, 1-benzyl-3-[(3-benzyloxy-4-{[2-(2-furyl)-5-methyl-1,3-oxazol-4-yl]methoxy}benzyl)oxy]-1H-pyrazole-4-carbaldehyde]",130 to 131 °C
14,"Cc1oc(-c2ccco2)nc1COc1ccc(COc2nn(Cc3ccccc3)cc2C(=O)O)cc1OCc1ccccc1 [Example 51, 1-benzyl-3-[(3-benzyloxy-4-{[2-(2-furyl)-5-methyl-1,3-oxazol-4-yl]methoxy}benzyl)oxy]-1H-pyrazole-4-carboxylic acid]",184 to 185 °C
15,"CCOC(=O)c1cn(Cc2ccccc2)nc1OCc1ccc(OCc2nc(-c3ccco3)oc2C)cc1OC [Example 52, ethyl 1-benzyl-3-[(4-{[2-(2-furyl)-5-methyl-1,3-oxazol-4-yl]methoxy}-2-methoxybenzyl)oxy]-1H-pyrazole-4-carboxylate]",137 to 138 °C

# Next, values leading:
row,melting point,Compound
1,147 to 148 °C,"COc1cc(OCc2nc(-c3ccco3)oc2C)ccc1COc1nn(Cc2ccccc2)cc1C=O [Example 54, 1-benzyl-3-[(4-{[2-(2-furyl)-5-methyl-1,3-oxazol-4-yl]methoxy}-2-methoxybenzyl)oxy]-1H-pyrazole-4-carbaldehyde]"
2,158 to 159 °C,"CCOC(=O)c1cn(Cc2ccccc2)nc1OCc1ccc(OCc2nc(-c3ccco3)oc2C)c(Br)c1 [Example 55, ethyl 1-benzyl-3-[(3-bromo-4-{[2-(2-furyl)-5-methyl-1,3-oxazol-4-yl]methoxy}benzyl)oxy]-1H-pyrazole-4-carboxylate]"
3,134 to 135 °C,"CCOC(=O)c1cn(Cc2ccccc2)nc1OCc1ccc(OCc2nc(-c3ccco3)oc2C)c(-c2ccccc2)c1 [Example 56, ethyl 1-benzyl-3-[(4-{[2-(2-furyl)-5-methyl-1,3-oxazol-4-yl]methoxy}-3-phenylbenzyl)oxy]-1H-pyrazole-4-carboxylate]"
4,181 to 182 °C,"Cc1oc(-c2ccco2)nc1COc1ccc(COc2nn(Cc3ccccc3)cc2C(=O)O)cc1-c1ccccc1 [Example 57, 1-benzyl-3-[(4-{[2-(2-furyl)-5-methyl-1,3-oxazol-4-yl]methoxy}-3-phenylbenzyl)oxy]-1H-pyrazole-4-carboxylic acid]"
5,122 to 123 °C,"Cc1oc(-c2ccco2)nc1COc1ccc(COc2nn(Cc3ccccc3)cc2C=O)cc1-c1ccccc1 [Example 59, 1-benzyl-3-[(4-{[2-(2-furyl)-5-methyl-1,3-oxazol-4-yl]methoxy}-3-phenylbenzyl)oxy]-1H-pyrazole-4-carbaldehyde]"
6,120 to 121 °C,"CCOC(=O)c1cn(Cc2ccccc2)nc1OCc1ccc(OCc2nc(-c3ccco3)oc2C)c(C)c1 [Example 60, ethyl 1-benzyl-3-[(4-{[2-(2-furyl)-5-methyl-1,3-oxazol-4-yl]methoxy}-3-methylbenzyl)oxy]-1H-pyrazole-4-carboxylate]"
7,176 to 177 °C,"Cc1cc(COc2nn(Cc3ccccc3)cc2C(=O)O)ccc1OCc1nc(-c2ccco2)oc1C [Example 61, 1-benzyl-3-[(4-{[2-(2-furyl)-5-methyl-1,3-oxazol-4-yl]methoxy}-3-methylbenzyl)oxy]-1H-pyrazole-4-carboxylic acid]"
8,121 to 122 °C,"Cc1cc(COc2nn(Cc3ccccc3)cc2C=O)ccc1OCc1nc(-c2ccco2)oc1C [Example 63, 1-benzyl-3-[(4-{[2-(2-furyl)-5-methyl-1,3-oxazol-4-yl]methoxy}-3-methylbenzyl)oxy]-1H-pyrazole-4-carbaldehyde]"
9,143 to 144 °C,"CCOC(=O)c1cn(-c2ccccc2)nc1OCc1oc2cc(OCc3nc(-c4ccccc4)oc3C)ccc2c1-c1ccccc1 [Example 64, ethyl 3-({6-[(5-methyl-2-phenyl-1,3-oxazol-4-yl)methoxy]-3-phenyl-1-benzofuran-2-yl}methoxy)-1-phenyl-1H-pyrazole-4-carboxylate]"
10,200 to 201 °C,"Cc1oc(-c2ccccc2)nc1COc1ccc2c(-c3ccccc3)c(COc3nn(-c4ccccc4)cc3C(=O)O)oc2c1 [Example 65, 3-({6-[(5-methyl-2-phenyl-1,3-oxazol-4-yl)methoxy]-3-phenyl-1-benzofuran-2-yl}methoxy)-1-phenyl-1H-pyrazole-4-carboxylic acid]"
11,118 to 119 °C,"Cc1oc(-c2ccccc2)nc1COc1ccc2c(-c3ccccc3)c(COc3nn(-c4ccccc4)cc3CO)oc2c1 [Example 66, [3-({6-[(5-methyl-2-phenyl-1,3-oxazol-4-yl)methoxy]-3-phenyl-1-benzofuran-2-yl}methoxy)-1-phenyl-1H-pyrazol-4-yl]methanol]"
12,176 to 177 °C,"Cc1oc(-c2ccccc2)nc1COc1ccc2c(-c3ccccc3)c(COc3nn(-c4ccccc4)cc3C=O)oc2c1 [Example 67, 3-({6-[(5-methyl-2-phenyl-1,3-oxazol-4-yl)methoxy]-3-phenyl-1-benzofuran-2-yl}methoxy)-1-phenyl-1H-pyrazole-4-carbaldehyde]"
13,125 to 126 °C,"CCOC(=O)c1cn(Cc2ccccc2)nc1OCc1ccc(OCc2nc(-c3ccco3)oc2C)c(CC)c1 [Example 68, ethyl 1-benzyl-3-[(3-ethyl-4-{[2-(2-furyl)-5-methyl-1,3-oxazol-4-yl]methoxy}benzyl)oxy]-1H-pyrazole-4-carboxylate]"
14,173 to 174 °C,"CCc1cc(COc2nn(Cc3ccccc3)cc2C(=O)O)ccc1OCc1nc(-c2ccco2)oc1C [Example 69, 1-benzyl-3-[(3-ethyl-4-{[2-(2-furyl)-5-methyl-1,3-oxazol-4-yl]methoxy}benzyl)oxy]-1H-pyrazole-4-carboxylic acid]"
15,128 to 129 °C,"CCc1cc(COc2nn(Cc3ccccc3)cc2C=O)ccc1OCc1nc(-c2ccco2)oc1C [Example 71, 1-benzyl-3-[(3-ethyl-4-{[2-(2-furyl)-5-methyl-1,3-oxazol-4-yl]methoxy}benzyl)oxy]-1H-pyrazole-4-carbaldehyde]"
16,184 to 185 °C,"COc1cc(COc2nn(-c3ccccc3)cc2C(=O)O)ccc1OCc1nc(-c2ccco2)oc1C [Example 73, 3-[(4-{[2-(2-furyl)-5-methyl-1,3-oxazol-4-yl]methoxy}-3-methoxybenzyl)oxy]-1-phenyl-1H-pyrazole-4-carboxylic acid]"
